Laboratory results taken from the supplement of paper PMC11962398.

Legend:
BI-2493 [1] = compound: T1, C[C@H]1CNCCN1c1nccc(-c2noc3c2CCC[C@@]32CCCc3sc(N)c(C#N)c32)n1 [BI-2493]; conditions: 5 days
Experimental: (§1)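 PRISM pooled barcoded cancer cell line viability screen (Broad Institute) with BI-2493 at 8 doses in threefold dilutions from 0.00457 to 10 µmol/L, 5-day treatment; curves fitted per cell line. IC50 is undefined (placeholder) for resistant lines. AUC is capped at 1, and sensitivity is reported as 1 − AUC.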

BI-2493 [2] = compound: T1, BI-2493; experiment: 1 - AUC of viability dose-response curve (sensitivity) (fraction); higher = more sensitive; conditions: 5 days
Experimental: as §1

Row | Test System | IC50 of cell viability (BI-2493 [1]) [µM] | 1 - AUC of viability dose-response curve (BI-2493 [2])
1 | HAC2_OVARY | 6.07 | 0.157
2 | HCA1_CERVIX | 4.58 | 0.132
3 | HCC15_LUNG | 9.81 | 0.0598
4 | HCC33_LUNG | 9.27 | 0.161
5 | HCC44_LUNG | 1.66 | 0.257
6 | HCC56_LARGE_INTESTINE | 2.37 | 0.242
7 | HCC78_LUNG | 7.51 | 0.164
8 | HCC515_LUNG | 5.55 | 0.103
9 | HCC827_LUNG | 7.98 | 0.0511
10 | HCC1143_BREAST | 9.86 | 0.106
11 | HCC1195_LUNG | 9.21 | 0.0206
12 | HCC1359_LUNG | 9.67 | 0.00729
13 | HCC1395_BREAST | 5.13 | 0.139
14 | HCC1419_BREAST | 7.93 | 0.0762
15 | HCC1428_BREAST | 5.47 | 0.106
16 | HCC1438_LUNG | > 10 | < 0
17 | HCC1806_BREAST | 5.35 | 0.0665
18 | HCC1937_BREAST | > 10 | 0.143
19 | HCC1954_BREAST | 5.1 | 0.0754
20 | HCC2108_LUNG | 9.5 | 0.0106
21 | HCC4006_LUNG | > 10 | 0.233
22 | HCSC1_CERVIX | 9.79 | 0.0229
23 | HCT116_LARGE_INTESTINE | 4.75 | 0.167
24 | HDMB03_CENTRAL_NERVOUS_SYSTEM | 4.5 | 0.129
25 | HDMYZ_HAEMATOPOIETIC_AND_LYMPHOID_TISSUE | 9.62 | 0.00919

Row | Test System | IC50 of cell viability (BI-2493 [1]) [µM] | 1 - AUC of viability dose-response curve (BI-2493 [2])
26 | HDQP1_BREAST | 8.25 | 0.0753
27 | HEC1A_ENDOMETRIUM | 3.64 | 0.136
28 | HEC1B_ENDOMETRIUM | 3.94 | 0.175
29 | HEC1_ENDOMETRIUM | 5.02 | 0.131
30 | HEC6_ENDOMETRIUM | 8.15 | 0.0397
31 | HEC59_ENDOMETRIUM | 9.3 | 0.025
32 | HEC108_ENDOMETRIUM | 5.68 | 0.123
33 | HEC116_ENDOMETRIUM | 9.57 | 0.012
34 | HEC151_ENDOMETRIUM | 5.89 | 0.0839
35 | HEC251_ENDOMETRIUM | 3.15 | 0.282
36 | HEC265_ENDOMETRIUM | 3.76 | 0.109
37 | HEL9217_HAEMATOPOIETIC_AND_LYMPHOID_TISSUE | 4.27 | 0.173
38 | HEL_HAEMATOPOIETIC_AND_LYMPHOID_TISSUE | 4.89 | 0.255
39 | HEP3B217_LIVER | 6.95 | 0.0726
40 | HEPG2_LIVER | 4.13 | 0.0929
41 | HEYA8_OVARY | 3.57 | 0.117
42 | HGC27_STOMACH | 3.92 | 0.158
43 | HH_HAEMATOPOIETIC_AND_LYMPHOID_TISSUE | 5.02 | 0.0743
44 | HKA1_SKIN | 4 | 0.111
45 | HKGZCC_BILIARY_TRACT | 1.41 | 0.281
46 | HL60_HAEMATOPOIETIC_AND_LYMPHOID_TISSUE | > 10 | 0.089
47 | HLF_LIVER | 7.5 | 0.0644
48 | HMC18_BREAST | 4.86 | 0.15
49 | HOS_BONE | 7.39 | 0.0734
50 | HOTHC_THYROID | 9.68 | 0.00917

Row | Test System | IC50 of cell viability (BI-2493 [1]) [µM] | 1 - AUC of viability dose-response curve (BI-2493 [2])
51 | HPAC_PANCREAS | 1.1 | 0.312
52 | HPAFII_PANCREAS | 0.582 | 0.396
53 | HPBALL_HAEMATOPOIETIC_AND_LYMPHOID_TISSUE | 4.23 | 0.0862
54 | HS294T_SKIN | 5.34 | 0.0895
55 | HS611T_HAEMATOPOIETIC_AND_LYMPHOID_TISSUE | > 10 | < 0
56 | HS683_CENTRAL_NERVOUS_SYSTEM | 9.89 | 0.0105
57 | HS729_SOFT_TISSUE | 8.7 | 0.101
58 | HS766T_PANCREAS | 6.84 | 0.108
59 | HS852T_SKIN | 9.99 | 0.00841
60 | HS939T_SKIN | 8.03 | 0.0542
61 | HS944T_SKIN | 3.82 | 0.103
62 | HSC1_SKIN | 4.81 | 0.111
63 | HSC2_UPPER_AERODIGESTIVE_TRACT | 3.64 | 0.169
64 | HSC3_UPPER_AERODIGESTIVE_TRACT | 5.44 | 0.138
65 | HSC5_SKIN | 5.05 | 0.126
66 | HSKTC_OVARY | 4.41 | 0.166
67 | HT3_CERVIX | 5.97 | 0.17
68 | HT29_LARGE_INTESTINE | 5.08 | 0.15
69 | HT55_LARGE_INTESTINE | 4.03 | 0.195
70 | HT115_LARGE_INTESTINE | 2.29 | 0.229
71 | HT144_SKIN | 5.71 | 0.091
72 | HT1080_SOFT_TISSUE | 3.19 | 0.209
73 | HT1197_URINARY_TRACT | 4.69 | 0.0777
74 | HT1376_URINARY_TRACT | 5.68 | 0.175
75 | HTMMT_ENDOMETRIUM | 5.79 | 0.0985

Row | Test System | IC50 of cell viability (BI-2493 [1]) [µM] | 1 - AUC of viability dose-response curve (BI-2493 [2])
76 | HT_HAEMATOPOIETIC_AND_LYMPHOID_TISSUE | 6.79 | 0.104
77 | HUG1N_STOMACH | 0.544 | 0.393
78 | HUH1_LIVER | 4.85 | 0.0866
79 | HUH6_LIVER | 6.78 | 0.0714
80 | HUH7_LIVER | 8.94 | 0.0355
81 | HUH28_BILIARY_TRACT | 9.21 | 0.0149
82 | HUO9_BONE | 9.56 | 0.0106
83 | HUPT3_PANCREAS | 5.16 | 0.182
84 | HUPT4_PANCREAS | 3.9 | 0.147
85 | IALM_LUNG | 1.56 | 0.317
86 | ICC4_BILIARY_TRACT | 3.75 | 0.184
87 | ICC8_BILIARY_TRACT | 7.67 | 0.185
88 | ICC9_BILIARY_TRACT | 4.52 | 0.225
89 | ICC10_BILIARY_TRACT | 9.23 | 0.0142
90 | ICC12_BILIARY_TRACT | 4.21 | 0.0946
91 | ICC137_BILIARY_TRACT | 7.76 | 0.116
92 | IGR1_SKIN | 7.02 | 0.0813
93 | IGR37_SKIN | 8.82 | 0.111
94 | IGR39_SKIN | 5.87 | 0.0609
95 | IGROV1_OVARY | 8.03 | 0.205
96 | IHH4_THYROID | 7.16 | 0.0625
97 | IM95_STOMACH | 4.31 | 0.152
98 | IPC298_SKIN | 4.47 | 0.0978
99 | ISHIKAWAHERAKLIO02ER_ENDOMETRIUM | 6.65 | 0.174
